Results on nine molecules are retold here after ChEMBL document CHEMBL2016457, “Discovery of potent and orally bioavailable 17β-hydroxysteroid dehydrogenase type 3 inhibitors” (Bioorg Med Chem, 2012).

Experiment [1] concerns the target T1, Glucocorticoid receptor (Homo sapiens) (UniProt P04150).
T1 sequence (whole entry): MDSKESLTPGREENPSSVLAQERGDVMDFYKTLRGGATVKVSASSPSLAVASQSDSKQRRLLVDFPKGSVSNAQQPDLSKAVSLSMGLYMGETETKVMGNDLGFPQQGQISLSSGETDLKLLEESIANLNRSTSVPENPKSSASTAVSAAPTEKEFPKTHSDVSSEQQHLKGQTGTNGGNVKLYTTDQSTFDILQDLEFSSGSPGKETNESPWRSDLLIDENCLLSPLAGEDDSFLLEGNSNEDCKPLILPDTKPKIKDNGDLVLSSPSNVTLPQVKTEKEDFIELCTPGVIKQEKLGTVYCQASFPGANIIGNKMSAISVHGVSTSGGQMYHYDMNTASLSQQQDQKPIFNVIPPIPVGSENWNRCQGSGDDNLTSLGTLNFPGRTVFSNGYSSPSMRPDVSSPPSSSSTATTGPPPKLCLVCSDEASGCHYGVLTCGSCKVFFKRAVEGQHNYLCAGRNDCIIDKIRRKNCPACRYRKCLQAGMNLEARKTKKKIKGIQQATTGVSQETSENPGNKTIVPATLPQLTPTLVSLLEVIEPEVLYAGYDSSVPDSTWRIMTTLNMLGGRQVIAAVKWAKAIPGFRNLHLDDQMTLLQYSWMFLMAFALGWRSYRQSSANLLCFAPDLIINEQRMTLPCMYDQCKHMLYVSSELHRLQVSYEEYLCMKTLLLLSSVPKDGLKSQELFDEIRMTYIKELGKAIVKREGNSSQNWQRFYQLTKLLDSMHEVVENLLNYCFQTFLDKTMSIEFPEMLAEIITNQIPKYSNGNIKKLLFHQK
As to the kind of experiment: Agonist activity at human Glucocorticoid receptor expressed in human HeLa cells assessed as DHT-induced response after 40 hrs by luciferase/beta-galactosidase-based reporter gene assay. It is filed as functional, cell-based. For orientation: Reporter assays use an easily measured gene product as a stand-in for the process of interest.

In experiment [2] the target is T2, 17-beta-hydroxysteroid dehydrogenase type 2 (Homo sapiens) (UniProt P37059).
T2 sequence (whole entry): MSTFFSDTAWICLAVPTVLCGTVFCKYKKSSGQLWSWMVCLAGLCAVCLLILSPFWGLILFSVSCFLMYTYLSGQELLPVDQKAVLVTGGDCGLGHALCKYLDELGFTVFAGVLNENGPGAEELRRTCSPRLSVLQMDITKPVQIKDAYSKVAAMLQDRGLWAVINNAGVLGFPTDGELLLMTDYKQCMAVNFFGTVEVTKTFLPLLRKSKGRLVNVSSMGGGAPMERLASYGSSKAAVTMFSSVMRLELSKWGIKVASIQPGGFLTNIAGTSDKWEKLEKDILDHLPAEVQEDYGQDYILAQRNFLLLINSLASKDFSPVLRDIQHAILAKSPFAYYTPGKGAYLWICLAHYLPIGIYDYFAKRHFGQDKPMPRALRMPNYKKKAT
Briefly: Inhibition of human recombinant 17-beta-HSD2 expressed in human HeLa cells using estradiol as substrate preincubated for 30 mins prior substrate addition measured after 120 mins by spectrophotometry. It counts as cell-based.

The target in experiment [3] is T3, 17-beta-hydroxysteroid dehydrogenase type 1 (Homo sapiens) (UniProt P14061).
T3 sequence (whole entry): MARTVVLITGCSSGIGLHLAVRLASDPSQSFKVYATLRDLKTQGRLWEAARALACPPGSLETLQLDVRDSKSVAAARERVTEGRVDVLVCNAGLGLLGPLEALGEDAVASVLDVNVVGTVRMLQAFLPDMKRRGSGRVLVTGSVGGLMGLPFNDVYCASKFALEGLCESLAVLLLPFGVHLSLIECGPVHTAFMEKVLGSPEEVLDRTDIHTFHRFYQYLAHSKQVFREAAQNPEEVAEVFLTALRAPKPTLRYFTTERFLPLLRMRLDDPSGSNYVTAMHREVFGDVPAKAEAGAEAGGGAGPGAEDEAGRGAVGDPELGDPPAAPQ
Briefly: Inhibition of human recombinant 17-beta-HSD1 expressed in human HeLa cells using estrone as substrate preincubated for 30 mins prior substrate addition measured after 120 mins by spectrophotometry. It counts as cell-based.

In experiment [4] the target is T4, Androgen receptor (Homo sapiens) (UniProt P10275).
T4 sequence (whole entry): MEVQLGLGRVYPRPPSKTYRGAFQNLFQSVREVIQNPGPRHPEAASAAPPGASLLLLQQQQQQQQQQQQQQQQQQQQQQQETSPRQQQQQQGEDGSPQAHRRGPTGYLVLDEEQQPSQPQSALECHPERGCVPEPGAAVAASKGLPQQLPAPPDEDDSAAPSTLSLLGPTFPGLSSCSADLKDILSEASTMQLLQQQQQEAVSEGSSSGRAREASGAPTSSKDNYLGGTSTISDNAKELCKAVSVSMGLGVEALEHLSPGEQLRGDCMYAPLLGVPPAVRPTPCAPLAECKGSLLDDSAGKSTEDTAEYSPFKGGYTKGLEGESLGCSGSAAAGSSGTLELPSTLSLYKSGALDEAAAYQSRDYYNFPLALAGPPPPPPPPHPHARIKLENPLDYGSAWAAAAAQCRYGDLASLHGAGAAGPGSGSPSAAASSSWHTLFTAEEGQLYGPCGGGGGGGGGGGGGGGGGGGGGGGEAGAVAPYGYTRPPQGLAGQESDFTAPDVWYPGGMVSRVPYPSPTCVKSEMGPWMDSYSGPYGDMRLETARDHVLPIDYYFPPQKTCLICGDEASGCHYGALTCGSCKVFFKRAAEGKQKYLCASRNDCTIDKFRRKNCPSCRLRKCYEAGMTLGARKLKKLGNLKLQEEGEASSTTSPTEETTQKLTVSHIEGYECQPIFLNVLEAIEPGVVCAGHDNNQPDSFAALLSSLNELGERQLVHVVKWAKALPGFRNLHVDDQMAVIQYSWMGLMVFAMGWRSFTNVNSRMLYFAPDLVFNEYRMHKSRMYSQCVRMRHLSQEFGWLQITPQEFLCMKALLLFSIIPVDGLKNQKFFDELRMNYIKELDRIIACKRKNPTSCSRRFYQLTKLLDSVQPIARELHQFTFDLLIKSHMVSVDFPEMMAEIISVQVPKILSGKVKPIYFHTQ
As to the kind of experiment: Agonist activity at human androgen receptor expressed in human HeLa cells assessed as DHT-induced response after 40 hrs by luciferase/beta-galactosidase-based reporter gene assay. It is filed as functional, cell-based.

The target of experiment [5] is T5, 17-beta-hydroxysteroid dehydrogenase type 3 (Homo sapiens, UniProt P37058).
T5 sequence (P37058 whole entry): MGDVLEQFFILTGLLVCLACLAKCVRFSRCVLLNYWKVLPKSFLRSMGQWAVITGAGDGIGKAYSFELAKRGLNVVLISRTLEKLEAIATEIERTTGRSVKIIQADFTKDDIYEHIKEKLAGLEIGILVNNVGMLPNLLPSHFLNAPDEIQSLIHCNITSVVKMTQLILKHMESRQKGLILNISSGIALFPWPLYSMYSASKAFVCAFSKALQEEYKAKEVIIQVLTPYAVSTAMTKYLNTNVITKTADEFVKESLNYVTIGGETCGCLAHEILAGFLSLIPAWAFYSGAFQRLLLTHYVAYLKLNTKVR
Description: Inhibition of human recombinant 17-beta-HSD3 expressed in human HeLa cells using androstenedione as substrate preincubated for 30 mins prior substrate addition measured after 120 mins by spectrophotometry

Experiment [6] addresses T6, Estrogen receptor (Homo sapiens) (UniProt P03372).
T6 sequence (whole entry): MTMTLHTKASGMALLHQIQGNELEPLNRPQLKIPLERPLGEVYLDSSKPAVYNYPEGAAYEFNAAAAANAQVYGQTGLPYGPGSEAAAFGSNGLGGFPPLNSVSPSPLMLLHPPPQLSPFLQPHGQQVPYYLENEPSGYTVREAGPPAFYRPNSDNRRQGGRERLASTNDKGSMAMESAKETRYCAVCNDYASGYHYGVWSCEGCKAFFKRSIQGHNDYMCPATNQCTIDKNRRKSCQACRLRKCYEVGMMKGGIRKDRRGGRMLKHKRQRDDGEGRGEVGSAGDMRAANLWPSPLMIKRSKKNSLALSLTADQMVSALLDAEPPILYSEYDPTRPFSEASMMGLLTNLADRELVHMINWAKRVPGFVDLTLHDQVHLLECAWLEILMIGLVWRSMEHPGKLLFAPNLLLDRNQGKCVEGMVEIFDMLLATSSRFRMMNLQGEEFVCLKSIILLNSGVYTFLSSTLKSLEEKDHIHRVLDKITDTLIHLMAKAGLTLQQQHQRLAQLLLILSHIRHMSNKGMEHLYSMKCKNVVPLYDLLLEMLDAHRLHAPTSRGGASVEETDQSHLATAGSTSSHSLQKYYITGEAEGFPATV
Briefly: Antagonist activity at human ERalpha receptor expressed in human HeLa cells assessed as inhibition of DHT-induced response after 40 hrs by luciferase/beta-galactosidase-based reporter gene assay. It counts as functional, cell-based.

Experiment [7] has as its target T4, Androgen receptor (Homo sapiens). Briefly: Antagonist activity at human androgen receptor expressed in human HeLa cells assessed as inhibition of DHT-induced response after 40 hrs by luciferase/beta-galactosidase-based reporter gene assay. It counts as functional, cell-based.
The target in experiment [8] is T1, Glucocorticoid receptor (Homo sapiens). Briefly: Antagonist activity at human GR receptor expressed in human HeLa cells assessed as inhibition of DHT-induced response after 40 hrs by luciferase/beta-galactosidase-based reporter gene assay. It is filed as functional, cell-based.
Experiment [9] addresses T6, Estrogen receptor (Homo sapiens). As to the kind of experiment: Agonist activity at human Estrogen receptor ERalpha expressed in human HeLa cells assessed as DHT-induced response after 40 hrs by luciferase/beta-galactosidase-based reporter gene assay. It counts as functional, cell-based.

pIC50: −log10 of the molar value. Active and inactive are the calls of the source. How the calls were made is not given here.

With `CN(C)c1ccc(N2C(=O)O/C(=C\c3ccc(O)c(Br)c3)C2=O)cn1`, the outcome in [1], in [4], in [6], in experiment [7], in [8] and in [9] was inactive. In addition, the inhibition result in experiment [2] and in experiment [3] was “inactive” in each case. In experiment [5], this molecule showed a pIC50 of 8.40.

On to `O=C1/C(=C/c2ccc(O)c(Br)c2)OC(=S)N1c1ccc(C(F)(F)F)cc1`, for which the result in experiment [1], in experiment [4], in [6], in experiment [7], in experiment [8] and in experiment [9] was inactive. Besides, the inhibition entry in experiment [2] and in experiment [3] was “inactive” in each case. Moreover, in experiment [5], the pIC50 is 8.52.

For `COc1ccc(N2C(=O)/C(=C/c3ccc(O)cc3Cl)OC2=S)cc1`, the outcome in experiment [1], in experiment [4], in [6], in [7], in experiment [8] and in [9] was inactive. Moreover, the inhibition result in experiment [2] and in experiment [3] was “inactive” throughout. Also, the pIC50 in experiment [5] is 8.30.

In the case of `O=C1O/C(=C\c2ccc(O)c(Br)c2)C(=O)N1c1ccc(F)nc1`, the outcome in experiment [1], in experiment [4], in experiment [6], in experiment [7], in [8] and in [9] was inactive. The inhibition result in [2] and in experiment [3] was “inactive” each time. In [5], this molecule had a pIC50 of 7.68.

Turning to `COc1ccc(N2C(=O)O/C(=C\c3ccc(O)c(Br)c3)C2=O)cn1`, the result in experiment [1], in experiment [4], in experiment [6], in experiment [7], in experiment [8] and in [9] was inactive. For the same molecule, the inhibition entry in [2] and in [3] was “inactive” each time. This molecule gave a pIC50 in [5] of 8.40.

As for `O=C1/C(=C/c2ccc(O)c(Br)c2)OC(=S)N1c1ccc2c(c1)OCO2`, the outcome in experiment [1], in experiment [4], in [6], in experiment [7], in experiment [8] and in [9] was inactive. Further, the inhibition result in [2] and in [3] was “inactive” in each case. Besides, in experiment [5], the negative logarithm of the IC50 (pIC50) is 7.92.

In the case of `CSc1ccc(N2C(=O)O/C(=C\c3ccc(O)c(Br)c3)C2=O)cc1`, the outcome in experiment [1], in [4], in [6], in [7], in [8] and in experiment [9] was inactive. Also, the inhibition result in experiment [2] and in experiment [3] was “inactive” each time. The molecule also gave a negative-log IC50 (pIC50) in experiment [5] of 7.05.

Regarding `COc1ccc(N2C(=O)/C(=C/c3ccc(O)c(Br)c3)SC2=S)cc1`, the result in experiment [1], in [4], in experiment [6], in experiment [7], in [8] and in experiment [9] was inactive. Further, the inhibition entry in [2] and in experiment [3] was “inactive” throughout.

For the molecule `COc1ccc(N2C(=O)O/C(=C\c3ccc(O)c(Br)c3)C2=O)cc1`, the result in experiment [1], in experiment [4], in experiment [6], in [7], in experiment [8] and in [9] was inactive. Also, the inhibition result in experiment [2] and in experiment [3] was “inactive” in each case.

For orientation: pIC50 means −log10 of the IC50, conventionally taken in molar units.
